# Results reported in PMC6379498, “Radiosynthesis and in vivo evaluation of ^11C-labeled BMS-193885 and its desmethyl analog as PET tracers for neuropeptide Y1 receptors” (EJNMMI Radiopharmacy and Chemistry, 2019).
# Columns and labels:
# [1] = Metabolite analysis of mouse plasma after co-injection of [^11C]1 with 1; format: in vivo, mice; details: 30 min after co-injection of [^11C]1 with 1 (50 mg/kg), radio- and UV-HPLC
# Procedure: In addition, the effects of co-injection of [^11C]1 with 1 on the results of metabolite analyses of plasma were investigated. [^11C]1 (26-30 MBq/0.38-0.45 nmol) and a solution of 1 (50 mg/kg b.w. in water containing 20% Tween 80) were intravenously co-injected into mice (aged 7-9 weeks, weighing 35-39 g, n = 4). Mice were euthanized by cervical dislocation at 30 min post-injection. Blood samples taken by heart puncture were collected into heparinized syringes. The samples were centrifuged at 13,000×g (Model 5500, KUBOTA, Tokyo, Japan) for 3 min at 4 °C to obtain plasma (0.2 mL). Plasma samples were added to equivalent volumes of acetonitrile, and mixtures were centrifuged at 20,000×g for 2 min. The precipitate was added to 0.2 mL of acetonitrile, and this mixture was centrifuged at 20,000×g for 2 min to obtain the supernatant. The mixed supernatant was added to 0.2 mL of water, and this solution was loaded into the injector loop. HPLC analysis was performed using the abovementioned radio-HPLC system for metabolite analysis, and also a […] column (5 μm mesh, 10 mm i.d. × 150 mm length; YMC, Kyoto, Japan). Elution was performed using a mixture of 90% acetonitrile solution and 0.1 mol/L ammonium acetate solution (45:55, vol./vol.). The flow rate was 4 mL/min.
# NPY Y1-Rs = biological target: T1, NPY Y1-Rs (Mus musculus, UniProt Q04573); experiment: Effect of pretreatment with 1 (BMS-193885) on tissue distribution of radioactivity; format: in vivo, mice; details: 30 min post-injection, 1 10 mg/kg 20-30 min before tracer, vs control
# T1 construct: in the lung, spleen, and kidney, which are rich in NPY Y1-Rs; from tissue; host or cells: organs of living mice (blood, heart, lung, spleen, kidney, liver, pancreas, muscle, brain etc.)
# T1 sequence (Q04573 1-382): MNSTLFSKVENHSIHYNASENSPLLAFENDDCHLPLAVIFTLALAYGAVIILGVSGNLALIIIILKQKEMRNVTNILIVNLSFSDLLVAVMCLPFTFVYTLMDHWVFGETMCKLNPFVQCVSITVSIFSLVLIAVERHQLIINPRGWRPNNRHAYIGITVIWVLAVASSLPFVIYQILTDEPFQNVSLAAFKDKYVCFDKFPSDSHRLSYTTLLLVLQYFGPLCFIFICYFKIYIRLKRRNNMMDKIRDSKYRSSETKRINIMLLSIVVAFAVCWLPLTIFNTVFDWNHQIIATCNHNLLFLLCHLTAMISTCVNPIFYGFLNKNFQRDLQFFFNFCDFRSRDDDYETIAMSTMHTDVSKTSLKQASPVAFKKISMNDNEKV
# Procedure: [^11C]1 (7.1–14 MBq/0.079–0.23 nmol) or [^11C]2 (6.0 MBq/0.16 nmol) was intravenously injected into mice (aged 7–8 weeks, weighing 32–36 g, n = 4–8) 20–30 min after the administration of the solution of 1 (10 mg/kg body weight [b.w.]/0.1 mL water containing 20% Tween 80), elacridar (5 mg/kg b.w./0.1 mL water), or a control fluid (0.1 mL water). Mice were euthanized by cervical dislocation at 30 min post-injection.
# Blood samples were collected by heart puncture. Tissues were dissected and weighed. […] The tissue uptake of radioactivity was expressed as the percentage of injected dose detected per gram of sample (%ID/g, tissue radioactivity/g tissue/injected radioactivity × 100).
Change of radioactivity level in blood by pretreatment with 1 (NPY Y1-Rs),Change of radioactivity level in brain by pretreatment with 1 (NPY Y1-Rs),Change of radioactivity level in heart by pretreatment with 1 (NPY Y1-Rs),Change of radioactivity level in kidney by pretreatment with 1 (NPY Y1-Rs),Change of radioactivity level in lung by pretreatment with 1 (NPY Y1-Rs),Change of radioactivity level in muscle by pretreatment with 1 (NPY Y1-Rs),Change of radioactivity level in pancreas by pretreatment with 1 (NPY Y1-Rs),Change of radioactivity level in spleen by pretreatment with 1 (NPY Y1-Rs),SMILES,Metabolites found in mouse plasma [1]
not changed,not changed,not changed,significantly decreased,significantly decreased,not changed,not changed,significantly decreased,COC(=O)C1=C(C)NC(C)=C(C(=O)OC)C1c1cccc(NC(=O)NCCCN2CCC(c3cccc(O[11CH3])c3)CC2)c1 [[^11C]1],rapidly metabolized into its unlabeled desmethyl analog 2 and radiolabeled components
not changed,not changed,not changed,significantly decreased,significantly decreased,not changed,not changed,significantly decreased,COC(=O)C1=C(C)NC(C)=C(C(=O)OC)C1c1cccc(N[11C](=O)NCCCN2CCC(c3cccc(O)c3)CC2)c1 [[^11C]2],
